{"source": "patent US5276043A", "about": "“Method for treatment of neurodegenerative diseases” (priority 1993, dated 1994)", "key": {"[1]": {"biological_target": "high affinity nicotinic receptors", "experiment": "Inhibition of L-[3H]nicotine binding to mouse brain membrane preparations", "design": "species or system Mice (DBA strain)", "details": "mouse brain membranes, 10 nM L-[3H]nicotine, 2 hr at 4° C.; Ki calculated from IC50 by Cheng method; read-out: Ki (concentration of compound which inhibits 50 percent of L-[3H]nicotine binding)", "protocol": "Mice (DBA strain) were maintained on a 12 hour light/dark cycle and were allowed free access to water and food supplied by Wayne Lab Blox, Madison, Wis. Animals used in the present studies were 60 to 90 days of age and weighed 20 to 25 g. Brain membrane preparations were obtained from pooled brain tissue of both males and females.\nMice were killed by cervical dislocation. Brains were removed and placed on an ice-cold platform. The cerebellum was removed and the remaining tissue was placed in 10 volumes (weight:volume) of ice-cold buffer (Krebs-RingersHEPES:NaCl, 118 mM; KCl, 4.8 mM; CaCl2, 2.5 mM; MgSO4, 1.2 mM; HEPES, 20 mM; pH to 7.5 with NaOH) and homogenized with a glass-Teflon tissue grinder. The resulting homogenate was centrifuged at 18000×g for 20 min. and the resulting pellet was resuspended in 20 volumes of water. After 60 min. incubation at 4° C., a new pellet was collected by centrifugation at 18000×g for 20 min. After resuspension in 10 volumes of buffer, a new final pellet was again collected by centrifugation at 18000×g for 20 min. Prior to each centrifugation step, the suspension was incubated at 37° C. for 5 min. to promote hydrolysis of endogenous acetylcholine. […] Protein was determined by the method of Lowry, et al., J. Biol. Chem., Vol. 193, pp. 265-275 (1951), using bovine serum albumin as the standard.\nThe binding of L-[^3 H]nicotine was measured using a modification of the method of Romano, et al., Science, Vol. 210, pp. 647-650 (1980) as described previously by Marks, et al., Mol. Pharmacol., Vol. 30, pp. 427-436 (1986). The binding of L-[^3 H]nicotine was measured using a 2 hr. incubation at 4° C. […] Nonspecific binding was determined by inclusion of 10 μM nonradioactive nicotine in the incubations. The inhibition of L-[^3 H]nicotine binding by test compounds was determined by including one of eight different concentrations of the test compound in the incubation. […] Inhibition constants (Ki values) were calculated from the IC50 values using the method of Cheng, et al., Biochem. Pharmacol., Vol. 22, pp. 3099-3108 (1973). […]"}, "[2]": {"tested_on": "synaptosomes from the striatal area of rat brain", "experiment": "[3H]-dopamine release from rat striatal synaptosomes", "format": "cell-based, Sprague-Dawley rats", "details": "read-out: Dopamine Release (percent release relative to (S)-(-)-nicotine)", "protocol": "Dopamine release was measured by preparing synaptosomes from the striatal area of rat brain obtained from Sprague-Dawley rats generally according to the procedures set forth by Nagy, et al., J. Neurochem., Vol. 43, pp. 1114-1123 (1984). Striata from 4 rats were homogenized in 2 ml of 0.32M sucrose buffered with 5 mM HEPES (pH 7.5), using a glass-teflon tissue grinder. The homogenate was diluted to 5 ml with additional homogenization solution and centrifuged at 1000×g for 10 min. This procedure was repeated on the new pellet and the resulting supernatant was centrifuged at 12,000×g for 20 min. A 3 layer discontinuous Percoll gradient consisting of 16 percent, 10 percent and 7.5 percent Percoll in HEPES-buffered sucrose was made with the final pellet dispersed in the top layer. After centrifugation at 15,000×g for 20 min., the synaptosomes were recovered above the 16 percent layer with a pasteur pipette, diluted with 8 ml of perfusion buffer (128 mM NaCl, 2.4 mM KCl, 3.2 mM CaCl2, 1.2 mM KH2 PO4, 1.2 mM MgSO4, 25 mM HEPES pH 7.4, 10 mM dextrose, 1 mM ascorbate, 0.01 mM pargyline), and centrifuged at 15,000×g for 20 min. The new pellet was collected and re-suspended in perfusion buffer. The synaptosome suspension was incubated for 10 min. at 37° C. Then [^3 H]-dopamine (Amersham, 40-60 Ci/mmol) was added to the suspension to give a final concentration of 0.1 μM in suspension, and the suspension was incubated for another 5 min. Using this method, 30 to 90 percent of the dopamine was taken up into the synaptosomes, as determined by scintillation counting following filtration through glass fiber filters soaked with 0.5 percent polyethyleneimine. A continuous perfusion system was used to monitor release following exposure to each ligand. The ligands are named in Table I. Synaptosomes were loaded onto glass fiber filters (Gelman type A/E). Perfusion buffer was dripped onto the filters (0.2-0.3 ml/min.) and pulled through the filters with a peristaltic pump. Synaptosomes were washed with perfusion buffer for a minimum of 20 min. before addition of the ligand. After the addition of a 0.2 ml of a 20 μM solution of ligand, the perfusate was collected into scintillation vials at 1 min. intervals and the dopamine released was quantified by scintillation counting. Peaks of radioactivity released above background were summed and the average basal release during that time was subtracted from the total. Release was expressed as a percentage of release obtained with an equal concentration of (S)-(-)-nicotine."}, "[3]": {"details": "0.2 ml of 20 μM ligand solution, relative to equal concentration of (S)-(-)-nicotine"}}, "note": "Like-named read-outs stand apart in the source and are kept apart here."}
{"smiles": "c1cncc(C2=NCCC2)c1", "note": "[myosmine]", "values": [{"measurement": "Ki", "setting": "[1]", "result": 3700, "unit": "nM"}, {"measurement": "Emax at 20 µM", "setting": "[2]; [3]", "result": 10, "unit": "%"}]}
{"smiles": "Fc1cncc(C2=NCCCC2)c1", "note": "[5-fluoroanabaseine]", "values": [{"measurement": "Emax at 20 µM", "setting": "[2]; [3]", "result": 50, "unit": "%"}]}
{"smiles": "C1=CCC(c2cccnc2)NC1", "note": "(racemic) [anatabine]", "values": [{"measurement": "Ki", "setting": "[1]", "result": 240, "unit": "nM"}, {"measurement": "Emax at 20 µM", "setting": "[2]; [3]", "result": 70, "unit": "%"}]}
{"smiles": "CN1CCCCC1c1cccnc1", "note": "(stereo not shown) [methyl anabasine]", "values": [{"measurement": "Ki", "setting": "[1]", "result": 450, "unit": "nM"}, {"measurement": "Emax at 20 µM", "setting": "[2]", "result": 5, "unit": "%"}]}
